Assay results as given in patent publication US8642774B2, “Compounds” (Boehringer Ingelheim International GmbH, priority 2011, dated 2014).
pEC50: −log10 of the molar value.

Target: T1, human recombinant mGluR5 (Homo sapiens, UniProt P41594)
T1 construct: expressed in transfected cells; host or cells: HEK 293 cell line, cultured with tetracycline, hygromycin and geneticin; tetracycline is withdrawn 3-7 days before the assay
Test: positive modulation of mGluR5, calcium based FLIPR assay
Type: cell-based
Settings: not given
Method: The positive modulation of mGluR5 is measured in a HEK 293 cell line expressing human recombinant mGluR5 and is detected with calcium based FLIPR assay. The cells are cultured with DMEM supplemented with 10% FCS, 2 μg/mL tetracycline, 100 μg/mL hygromycin and 500 μg/mL gneticin. The cell culture media is exchanged for tetracycline-free cell culture media 3-7 days before the assay. One day before the assay the cell culture medium is exchanged to DMEM without glutamine and phenol red and supplemented with 10% FCS, 100 μg/mL hygromycin and 500 μg/mL geneticin. On the assay day, the medium of the subconfluent cultures is removed and the cells are detached by addition of 2.5 ml EDTA (0.02%) per 175 cm2 culture flask for 1 minute. The cells are resuspend in Ringer solution (140 mM NaCl, 5 mM KCl, 2.5 mM CaCl2, 1.5 mM MgCl2, 5 mM Glucose, 10 mM Hepes; adjusted to pH 7.4 with NaOH), pooled and Ringer solution added to adjust the volume to 50 mL. The cell suspension is centrifuged for 5 min at 1500 U/min (425 g). The supernatant is removed and the cells washed a second time with 50 ml fresh Ringer solution and centrifuged again as before. The supernatant is again removed and the pellet resuspended in Ringer solution to 1,000,000 cells/ml (1×10^6 cells/mL). The cells are plated onto BD BioCoat Poly-D-Lysine 384 well plates (20.000 cells/well; 20 μl/well). The lid covered plates are then incubated until use at 37° C./10% CO2. For dye loading, 20 μl of Calcium-4 assay kit solution (prepared according to the manufacturer's description in Ringer solution) are added to the cells and the plates are incubated for 80 min 37° C. and then 10 min at room temperature. • Controls, Compound dilution and assay execution: • Each assay plate contained wells with “high” and “low” controls:
Low controls 1% DMSO/ringer solution+basal glutamate activation (defined as 100% CTL).
High controls 10 μM CDPPB+basal glutamate activation (defined as 200% CTL).
Test compounds are dissolved and diluted in DMSO to 100-fold the desired concentrations. In a second step, the compounds are diluted in Ringer solution such that the compounds are 4-fold more concentrated than the desired final assay concentration. The final DMSO concentration was 1%.
20 μl of each compound solution are then transferred to the assay plate and the Ca2+ kinetic is measured to determine any intrinsic compound activity. After 5 min incubation in the FLIPR device, the second stimulation with 20 μl of glutamate in Ringer solution (glutamate concentration adjusted to approximately 5% basal stimulation of the maximal possible glutamate effect) is added and the kinetic Ca2+ response of the wells was measured for the modulation effect.
The peak height of the Ca release related fluorescence signal (9-66) is used for the EC50. The EC50 of the modulation is calculated over a nonlinear regression with GraphPad Prism (Table 1).

T1 sequence (P41594 21-1212): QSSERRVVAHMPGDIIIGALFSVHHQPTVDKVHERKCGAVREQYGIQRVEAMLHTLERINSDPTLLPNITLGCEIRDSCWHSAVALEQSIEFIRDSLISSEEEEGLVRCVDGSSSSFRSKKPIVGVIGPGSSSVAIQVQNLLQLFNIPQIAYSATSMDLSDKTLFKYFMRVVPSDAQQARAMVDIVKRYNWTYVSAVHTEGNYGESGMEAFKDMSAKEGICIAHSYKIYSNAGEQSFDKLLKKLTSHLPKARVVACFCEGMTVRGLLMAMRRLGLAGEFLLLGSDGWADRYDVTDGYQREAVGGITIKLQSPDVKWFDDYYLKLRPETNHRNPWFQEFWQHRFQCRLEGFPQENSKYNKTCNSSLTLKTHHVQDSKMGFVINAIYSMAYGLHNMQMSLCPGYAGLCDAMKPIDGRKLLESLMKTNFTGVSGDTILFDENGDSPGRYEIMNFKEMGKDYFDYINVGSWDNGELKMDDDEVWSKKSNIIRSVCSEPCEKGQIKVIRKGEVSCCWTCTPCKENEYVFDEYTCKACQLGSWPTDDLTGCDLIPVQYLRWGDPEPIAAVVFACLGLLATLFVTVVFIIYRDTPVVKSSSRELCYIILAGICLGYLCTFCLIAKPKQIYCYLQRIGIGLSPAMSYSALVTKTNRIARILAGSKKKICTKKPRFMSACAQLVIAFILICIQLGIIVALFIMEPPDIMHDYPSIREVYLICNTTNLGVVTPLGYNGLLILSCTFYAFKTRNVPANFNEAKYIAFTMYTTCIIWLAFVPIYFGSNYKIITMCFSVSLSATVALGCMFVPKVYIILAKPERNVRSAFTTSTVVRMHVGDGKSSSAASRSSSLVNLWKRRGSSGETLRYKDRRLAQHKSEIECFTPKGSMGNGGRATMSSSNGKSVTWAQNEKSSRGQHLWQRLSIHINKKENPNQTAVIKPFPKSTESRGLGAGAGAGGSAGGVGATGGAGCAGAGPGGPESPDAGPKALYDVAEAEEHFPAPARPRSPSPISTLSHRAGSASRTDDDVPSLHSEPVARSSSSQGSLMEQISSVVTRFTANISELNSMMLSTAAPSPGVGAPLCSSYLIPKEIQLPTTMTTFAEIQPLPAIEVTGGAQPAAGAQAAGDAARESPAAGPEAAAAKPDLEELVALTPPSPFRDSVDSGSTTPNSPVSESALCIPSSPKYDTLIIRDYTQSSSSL

SMILES | pEC50
O=C(Cn1nc(-c2ccc(F)cc2)nc1-c1ccc(F)cc1)N1CCC(Nc2ccccc2)CC1 [Example 7.02.20.] | 5.82

Same assay, conditions: EC50 of the modulation; HEK 293 cell line expressing human recombinant mGluR5; peak height of Ca fluorescence signal after glutamate at approx. 5% basal stimulation; read-out: EC50

SMILES | pEC50
O=C(Cn1nc(-c2ccc(F)cc2)nc1-c1ccc(F)cc1)N1CCN(c2ncnc3ccccc23)CC1 [07.03.141^] | 5.95
O=C(Cn1nc(-c2ccc(F)cc2)nc1-c1ccc(F)cc1)N1CCN(c2ccccn2)C(=O)C1 [Example 7.01.01., 4-(2-(3,5-bis-(4-Fluoro-phenyl)-(1,2,4)triazol-1-yl)-acetyl)-1-pyridin-2-yl-piperazin-2-one] | 6.67
O=C(Cn1nc(-c2ccc(F)cc2)nc1-c1ccc(F)cc1)N1CCN(c2nccs2)C(=O)C1 [Example 7.01.02.] | 6.93
COc1cccc(N2CCN(C(=O)Cn3nc(-c4ccc(F)cc4)nc3-c3ccc(F)cc3)CC2=O)c1 [Example 7.01.03.] | 6.55
O=C(Cn1nc(-c2ccc(F)cc2)nc1-c1ccc(F)cc1)N1CCC(c2noc3ccccc23)CC1 [Example 7.02.01., 1-(4-Benzo[d]isoxazol-3-yl-piperidin-1-yl)-2-(3,5-bis-(4-fluoro-phenyl)-(1,2,4)triazol-1-yl)-ethanone] | 6.75
CC(C)c1noc(C2CCN(C(=O)Cn3nc(-c4ccc(F)cc4)nc3-c3ccc(F)cc3)CC2)n1 [Example 7.02.03.] | 5.91
O=C(Cn1nc(-c2ccc(F)cc2)nc1-c1ccc(F)cc1)N1Cc2cn[nH]c2C1 [Example 7.02.04.] | 6.09
O=C(Cn1nc(-c2ccc(F)cc2)nc1-c1ccc(F)cc1)N1CCc2cc(F)ccc2C1 [Example 7.02.05.] | 6.05
O=C(Cn1nc(-c2ccc(F)cc2)nc1-c1ccc(F)cc1)N1CCC(OCC2CC2)CC1 [Example 7.02.06.] | 5.85
CC(=O)Nc1nc2c(s1)CCN(C(=O)Cn1nc(-c3ccc(F)cc3)nc1-c1ccc(F)cc1)CC2 [Example 7.02.07.] | 5.92
COc1cccc2c1CCN(C(=O)Cn1nc(-c3ccc(F)cc3)nc1-c1ccc(F)cc1)C2 [Example 7.02.08.] | 6.18
O=C(Cn1nc(-c2ccc(F)cc2)nc1-c1ccc(F)cc1)N1CCc2cc(C(F)(F)F)ccc2C1 [Example 7.02.09.] | 6.00
O=C(Cn1nc(-c2ccc(F)cc2)nc1-c1ccc(F)cc1)N1CCc2cccc(F)c2C1 [Example 7.02.10.] | 6.02
COC(=O)c1ccc2c(c1)CCN(C(=O)Cn1nc(-c3ccc(F)cc3)nc1-c1ccc(F)cc1)CC2 [Example 7.02.11.] | 6.42
O=C(Cn1nc(-c2ccc(F)cc2)nc1-c1ccc(F)cc1)N1CCc2ccccc2CC1 [Example 7.02.12.] | 5.99
O=C(Cn1nc(-c2ccc(F)cc2)nc1-c1ccc(F)cc1)N1CCN(c2cccc(F)c2)C(=O)C1 [Example 7.02.13.] | 6.26
O=C(Cn1nc(-c2ccc(F)cc2)nc1-c1ccc(F)cc1)N1CCN(c2ccccc2F)C(=O)C1 [Example 7.02.14.] | 6.27
CCNC(=O)Nc1nc2c(s1)CN(C(=O)Cn1nc(-c3ccc(F)cc3)nc1-c1ccc(F)cc1)CC2 [Example 7.02.15.] | 6.19
CC(C)NC(=O)Nc1nc2c(s1)CN(C(=O)Cn1nc(-c3ccc(F)cc3)nc1-c1ccc(F)cc1)CC2 [Example 7.02.16.] | 5.86
CNC(=O)Nc1nc2c(s1)CN(C(=O)Cn1nc(-c3ccc(F)cc3)nc1-c1ccc(F)cc1)CC2 [Example 7.02.17.] | 5.98
O=C(Cn1nc(-c2ccc(F)cc2)nc1-c1ccc(F)cc1)N1CCC(c2nccs2)CC1 [Example 7.02.18.] | 6.29
O=C(Cn1nc(-c2ccc(F)cc2)nc1-c1ccc(F)cc1)N1CCC(c2ncc(-c3ccccc3)s2)CC1 [Example 7.02.19.] | 5.70
O=C(Cn1nc(-c2ccc(F)cc2)nc1-c1ccc(F)cc1)N1CCC(c2nnc(-c3ccc(F)cc3)o2)CC1 [Example 7.02.22.] | 6.13
Cc1nc2c(s1)CN(C(=O)Cn1nc(-c3ccc(F)cc3)nc1-c1ccc(F)cc1)C2 [Example 7.02.23.] | 6.56
N#Cc1ccc(Cl)cc1NC1CCN(C(=O)Cn2nc(-c3ccc(F)cc3)nc2-c2ccc(F)cc2)CC1 [Example 7.02.24.] | 6.25
CN1C(=O)N(C2CCN(C(=O)Cn3nc(-c4ccc(F)cc4)nc3-c3ccc(F)cc3)CC2)Cc2ccccc21 [Example 7.02.25.] | 5.73
Nc1ccc2c(c1)CCN(C(=O)Cn1nc(-c3ccc(F)cc3)nc1-c1ccc(F)cc1)CC2 [Example 7.02.26.] | 6.29

SMILES | pEC50
O=C(Cn1nc(-c2ccc(F)cc2)nc1-c1ccc(F)cc1)N1CCc2c(F)ccc(F)c2C1 [Example 7.02.27.] | 5.74
O=C(Cn1nc(-c2ccc(F)cc2)nc1-c1ccc(F)cc1)N1CCC(c2noc3ccc(F)cc23)CC1 [Example 7.02.28.] | 6.19
C=CCNC(=O)Nc1nc2c(s1)CN(C(=O)Cn1nc(-c3ccc(F)cc3)nc1-c1ccc(F)cc1)CC2 [Example 7.02.29.] | 6.30
O=C(Cn1nc(-c2ccc(F)cc2)nc1-c1ccc(F)cc1)N1CCC(Oc2ccc3c(c2)OCO3)CC1 [Example 7.02.30.] | 6.03
O=C(Cn1nc(-c2ccc(F)cc2)nc1-c1ccc(F)cc1)N1CCC(n2nc(-c3cccs3)ccc2=O)CC1 [Example 7.02.31.] | 5.75
CC(C)c1ncc2c(n1)CCN(C(=O)Cn1nc(-c3ccc(F)cc3)nc1-c1ccc(F)cc1)C2 [Example 7.02.32.] | 6.33
COC(=O)c1ccc2c(c1)CCN(C(=O)Cn1nc(-c3ccc(F)cc3)nc1-c1ccc(F)cc1)C2 [Example 7.02.33.] | 6.51
Cn1c(=O)n(C2(C)CCN(C(=O)Cn3nc(-c4ccc(F)cc4)nc3-c3ccc(F)cc3)CC2)c2ccccc21 [Example 7.02.34.] | 5.84
O=C(Cn1nc(-c2ccc(F)cc2)nc1-c1ccc(F)cc1)N1CCC(N2Cc3c(Cl)cccc3NC2=O)CC1 [Example 7.02.35.] | 5.85
COc1ccc2c(c1)CCN(C(=O)Cn1nc(-c3ccc(F)cc3)nc1-c1ccc(F)cc1)C2C (stereo not drawn) [Example 7.02.36.] | 5.96
O=C(Cn1nc(-c2ccc(F)cc2)nc1-c1ccc(F)cc1)N1CCc2ncnc(-c3ccccc3)c2CC1 [Example 7.02.37.] | 6.15
Cc1noc(C2CCN(C(=O)Cn3nc(-c4ccc(F)cc4)nc3-c3ccc(F)cc3)CC2)n1 [Example 7.02.38.] | 5.94
COc1ccc2c(c1)CCN(C(=O)Cn1nc(-c3ccc(F)cc3)nc1-c1ccc(F)cc1)CC2 [Example 7.02.39.] | 6.55
O=C(Cn1nc(-c2ccc(F)cc2)nc1-c1ccc(F)cc1)N1Cc2ccncc2C1 [Example 7.02.40.] | 5.76
COc1ccc2c(c1)CN(C(=O)Cn1nc(-c3ccc(F)cc3)nc1-c1ccc(F)cc1)CC2 [Example 7.02.41.] | 5.90
Nc1nc2c(s1)CN(C(=O)Cn1nc(-c3ccc(F)cc3)nc1-c1ccc(F)cc1)CC2 [Example 7.02.42.] | 5.91
O=C(Cn1nc(-c2ccc(F)cc2)nc1-c1ccc(F)cc1)N1CCc2ncsc2C1 [Example 7.02.43.] | 5.79
COc1ccc2c(c1)CCN(C(=O)Cn1nc(-c3ccc(F)cc3)nc1-c1ccc(F)cc1)C2 [Example 7.02.44.] | 6.68
Nc1nnc(C2CCN(C(=O)Cn3nc(-c4ccc(F)cc4)nc3-c3ccc(F)cc3)CC2)o1 [Example 7.02.45.] | 6.00
COc1cccc2c1CN(C(=O)Cn1nc(-c3ccc(F)cc3)nc1-c1ccc(F)cc1)C2 [Example 7.02.46.] | 6.42
COc1ccc2c(c1)CN(C(=O)Cn1nc(-c3ccc(F)cc3)nc1-c1ccc(F)cc1)C2 [Example 7.02.47.] | 6.69
N#Cc1ccc2c(c1)CCN(C(=O)Cn1nc(-c3ccc(F)cc3)nc1-c1ccc(F)cc1)C2 [Example 7.02.48.] | 6.01
Cn1ncc2c1CN(C(=O)Cn1nc(-c3ccc(F)cc3)nc1-c1ccc(F)cc1)C2 [Example 7.02.49.] | 5.87
O=C(Cn1nc(-c2ccc(F)cc2)nc1-c1ccc(F)cc1)N1CCC(c2ncc(Cl)cn2)CC1 [Example 7.02.50.] | 6.67
O=C(Cn1nc(-c2ccc(F)cc2)nc1-c1ccc(F)cc1)N1CCc2cn[nH]c2CC1 [Example 7.02.51.] | 6.15
O=C(Cn1nc(-c2ccc(F)cc2)nc1-c1ccc(F)cc1)N1CCC(c2ccon2)CC1 [Example 7.02.52.] | 6.33
